Patent US7989417B2, “Linkers for radiopharmaceutical compounds” (Bracco Imaging S.p.A., priority 2003, dated 2011)

What was measured:
PC3 tumor = assay: Radiotherapy studies in PC3 tumor-bearing nude mouse model; format: in vivo; conditions: Lu-177 labelled; for survival, short term efficacy study: 30 mCi/kg i.v. or s.c., up to 30 days, versus no treatment and versus same dose of L134
Procedure: A. Short Term Efficacy Studies: • Radiotherapy studies were performed using the PC3 tumor-bearing nude mouse model. […] (n=12 for each treatment group and n=36 for the untreated control group). For the first study, mice were administered 100 μL of ^177Lu-labelled compound of the invention at 30 mCi/kg, i.v, or s.c. under sterile conditions. The subjects were housed in a barrier environment for up to 30 days. Body weight and tumor size (by caliper measurement) were collected on each subject 3 times per week for the duration of the study. Criteria for early termination included: death; loss of total body weight (TBW) equal to or greater than 20%; tumor size equal to or greater than 2 cm^3.

[1] = Tracer dose biodistribution in xenografted PC3 tumor-bearing mice; conditions: Lu-177 labelled; for uptake in the tumor (in words): 1 and 24 h; for uptake in the mouse pancreas (in words): compared with L134, pancreas known to have GRP receptors
Procedure: In all studies, mice were administered 100 μL of ^177Lu-labelled test compound at 200 μCi/kg, i.v., with a residence time of 1 and 24 h per group (n=3-4). Tissues were analyzed in an LKB 1282 CompuGamma counter with appropriate standards.

human serum albumin = human serum albumin (Homo sapiens, UniProt P02768); assay: Binding to human serum albumin by ultrafiltration; conditions: 1 nM insulin solution in 0.6 mM human serum albumin, spiked with 125I-labeled insulin
Procedure: Binding to human serum albumin is determined by ultrafiltration according to Whitlam J. B. & Brown K. F.: J. Pharm. Sci. 70, 146-150, 1981, applying 1 nM bovine insulin solution in 0.6 mM human serum albumin, spiked with ^125I-labeled insulin. 95% of the insulin is bound. It is evident that such binding to albumin will reduce the renal elimination of the modified insulin (Compounds B and D) relative to that of native insulin.

rat epididymal fat cells [2] = assay: Fat cell assay: activation of glucose oxidation; format: cell-based; conditions: buffers containing serum albumin; compared with native insulin
rat epididymal fat cells [3] = conditions: bound to a 1:1 conjugate of avidin and ferritin; compared with insulin; cited from earlier work

Molecule	survival, short term efficacy study (PC3 tumor)	uptake in the tumor (in words) ([1]; compared with control L134)	uptake in the mouse pancreas (in words) [1]	activity in fat cell assay (activation of glucose oxidation) (rat epididymal fat cells [2])	further results
CSCC[C@H](NC(=O)[C@H](CC(C)C)NC(=O)[C@H](Cc1c[nH]cn1)NC(=O)CNC(=O)[C@@H](NC(=O)[C@H](C)NC(=O)[C@H](Cc1c[nH]c2ccccc12)NC(=O)[C@H](CCC(N)=O)NC(=O)CC[C@@H](C)[C@H]1CC[C@H]2[C@@H]3CC[C@@H]4C[C@@H](NC(=O)CNC(=O)CN5CCN(CC(=O)O)CCN(CC(=O)O)CCN(CC(=O)O)CC5)CC[C@]4(C)[C@H]3C[C@H](O)[C@]12C)C(C)C)C(N)=O [Compound L63, N-[(3β,5β,12α)-3-[[[[[4,7,10-Tris(carboxymethyl)-1,4,7,10-tetraazacyclododec-1-yl]acetyl]amino]acetyl]amino]-12-hydroxy-24-oxocholan-24-yl]-L-glutaminyl-L-tryptophyl-L-alanyl-L-valyl-glycyl-L-histidyl-L-leucyl-L-methioninamide]	increased survival	high tumour uptake	much higher		distribution of radioactivity in blood, liver and kidneys (in words) ([1]; compared with control L134): increased blood and liver values at early times
Bovine N^eB29-[4-[[(3β,5β,12α)-23-carboxy-12-hydroxy-24-norcholan-3-yl]amino]-4-oxobutanoyl]-insulin [Compound B]				identical activity to native insulin	bound to human serum albumin (human serum albumin): 95%
N^εB29-biotinylinsulin					dose-response curve for the activation of glucose oxidation (rat epididymal fat cells [3]): same dose-response curve as insulin
CSCC[C@H](NC(=O)[C@H](CC(C)C)NC(=O)[C@H](Cc1c[nH]cn1)NC(=O)CNC(=O)[C@@H](NC(=O)[C@H](C)NC(=O)[C@H](Cc1c[nH]c2ccccc12)NC(=O)[C@H](CCC(N)=O)NC(=O)CC[C@@H](C)[C@H]1CC[C@H]2[C@@H]3[C@H](O)C[C@@H]4C[C@@H](NC(=O)CNC(=O)CN5CCN(CC(=O)O)CCN(CC(=O)O)CCN(CC(=O)O)CC5)CC[C@]4(C)[C@H]3C[C@H](O)[C@]12C)C(C)C)C(N)=O [Compound L64, N-[(3β,5β,7α,12α)-3-[[[[[4,7,10-Tris(carboxymethyl)-1,4,7,10-tetraazacyclododec-1-yl]acetyl]amino]acetyl]amino]-7,12-dihydroxy-24-oxocholan-24-yl]-L-glutaminyl-L-tryptophyl-L-alanyl-L-valyl-glycyl-L-histidyl-L-leucyl-L-methioninamide]	increased survival	much higher	much higher		survival, repeat study (PC3 tumor; same dose, n=46, followed longer, relative to controls (n=36), p<0.0001): significantly increased survival
Bovine 1-[[(3β,5β,12α)-23-[(1,1-dimethyl)ethoxycarbonyl]-12-hydroxy-24-norcholan-3-yl]amino]carbonyl-3,5-bis[[4-(insulin-N^εB29-yl)-1,4-dioxobutyl]amino]benzene [Compound D]				identical activity to native insulin	
